Measurements reported in paper PMC10050881.
pIC50, pKd: −log10 of the molar value.

Experiments:
[1] = biological target: T1, PEDV Mpro (main protease, 3CL protease) (Porcine epidemic diarrhea virus CV777, UniProt P0C6Y4); test: surface plasmon resonance (OpenSPR), Mpro immobilised; type: binding; conditions: read-out: KD (affinity constant)
T1 construct: gene rep; mature nsp5 main protease cut from replicase polyprotein 1a/1ab; recombinant N-terminal GST fusion, GST tag removed with PreScission protease; expression as in Li et al., 2020; PDB 4XFQ only for docking
T1 sequence (P0C6Y4 2998-3299 limits assumed): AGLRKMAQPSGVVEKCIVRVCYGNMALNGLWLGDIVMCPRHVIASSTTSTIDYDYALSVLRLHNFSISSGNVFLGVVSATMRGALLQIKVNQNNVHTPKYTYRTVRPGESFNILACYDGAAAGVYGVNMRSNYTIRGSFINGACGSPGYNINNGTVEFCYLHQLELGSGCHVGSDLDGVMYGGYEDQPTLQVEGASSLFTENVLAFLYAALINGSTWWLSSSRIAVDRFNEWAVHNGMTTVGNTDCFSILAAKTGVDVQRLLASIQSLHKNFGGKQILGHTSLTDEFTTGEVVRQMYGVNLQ

[2] = biological target: T1, PEDV Mpro (main protease, 3CL protease); test: FRET inhibition assay; type: biochemical

Q: How did the pKd [1] turn out when `COc1c(O)cc(O)c2c(=O)cc(-c3ccccc3)oc12` [wogonin] was run?
A: 4.80

Q: And the pIC50 [2]?
A: 4.71
